In patent publication US10308644B2, “Heterocyclic compounds as immunomodulators” (Incyte Corporation, priority 2016, dated 2019):
pIC50: −log10 of the molar value.

Target: PD-1/PD-L1 (Homo sapiens (Human), UniProt Q9NZQ7)
Experiment: PD-1/PD-L1 Homogeneous Time-Resolved Fluorescence (HTRF) Binding Assay
Conditions: recombinant human PD-1 (3 nM) and PD-L1 (10 nM), 25° C., PBS pH 7.4
In short: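 Fc-tagged human PD-1 (25-167, 3 nM) and His-tagged PD-L1 (19-238, 10 nM) preincubated with inhibitor 40 min in PBS pH 7.4, 0.05% Tween-20, 0.1% BSA, 1% DMSO, 25 °C. Binding detected by HTRF (Eu anti-IgG/APC anti-His, 665/620 nm) after 60 min; IC50 from percent control activity.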

Sequence of PD-1/PD-L1 (Q9NZQ7 19-238): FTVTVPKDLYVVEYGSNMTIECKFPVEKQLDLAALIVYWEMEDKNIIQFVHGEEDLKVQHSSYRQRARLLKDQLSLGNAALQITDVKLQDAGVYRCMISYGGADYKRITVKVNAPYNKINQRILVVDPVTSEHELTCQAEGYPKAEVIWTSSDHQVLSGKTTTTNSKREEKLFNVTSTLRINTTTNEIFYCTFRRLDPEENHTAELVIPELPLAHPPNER

pIC50, ≥ 8.00:
Cc1c(-c2nc3cc(CN4CCC(C(=O)O)CC4)cc(C#N)c3o2)cccc1-c1cccc(NC(=O)c2nc3c(n2C)CC(C)NC3)c1Cl (stereo not shown) [Example 164, 1-((2-(2′-chloro-3′-(1,6-dimethyl-4,5,6,7-tetrahydro-1H-imidazo[4,5-c]pyridine-2-carboxamido)-2-methylbiphenyl-3-yl)-7-cyanobenzo[d]oxazol-5-yl)methyl)piperidine-4-carboxylic acid]
Cc1c(-c2nc3cc(CN4CC[C@@H](C(=O)O)C4)cc(C#N)c3o2)cccc1-c1cccc(N2CCC(N[C@H]3C[C@@H](O)C3)CC2)c1Cl [Example 47, (R)-1-((2-(2′-chloro-3′-(4-((1s,3s)-3-hydroxycyclobutylamino)piperidin-1-yl)-2-methylbiphenyl-3-yl)-7-cyanobenzo[d]oxazol-5-yl)methyl)pyrrolidine-3-carboxylic acid]
Cc1c(-c2nc3cc(CN4CC5CC4CC5O)cc(C#N)c3o2)cccc1-c1cccc(NC(=O)c2nc3c(n2C)CCN(CC2CCC(C(=O)O)CC2)C3)c1Cl (stereo not drawn) [Example 270, trans-4-((2-(2-chloro-3′-(7-cyano-5-((5-hydroxy-2-azabicyclo[2.2.1]heptan-2-yl)methyl)benzo[d]oxazol-2-yl)-2′-methylbiphenyl-3-ylcarbamoyl)-1-methyl-6,7-dihydro-1H-imidazo[4,5-c]pyridin-5(4H)-yl)methyl)cyclohexanecarboxylic acid]
Cc1c(-c2nc3cc(CN4CC[C@@H](C(=O)O)C4)cc(Cl)c3o2)cccc1-c1cccc(N2CCC(NCC3(CO)CCC3)CC2)c1Cl [Example 46, (R)-1-((7-chloro-2-(2′-chloro-3′-(4-((1-(hydroxymethyl)cyclobutyl)methylamino)piperidin-1-yl)-2-methylbiphenyl-3-yl)benzo[d]oxazol-5-yl)methyl)pyrrolidine-3-carboxylic acid]
Cc1c(Nc2nccc3cc(CN4CC[C@H](O)C4)cnc23)cccc1-c1cccc(-c2nc3cc(CNCCC(=O)O)cc(Cl)c3o2)c1C [Example 20, (S)-3-((7-chloro-2-(3′-(3-((3-hydroxypyrrolidin-1-yl)methyl)-1,7-naphthyridin-8-ylamino)-2,2′-dimethylbiphenyl-3-yl)benzo[d]oxazol-5-yl)methylamino)propanoic acid]
CCN1CCN(CC(=O)N2Cc3nc(-c4cccc(-c5cccc(-c6nc7cc(CN8CC[C@@](C)(C(=O)O)C8)cc(C#N)c7o6)c5C)c4C)sc3C2)CC1 [Example 223, (R)-1-((7-cyano-2-(3′-(5-(2-(4-ethylpiperazin-1-yl)acetyl)-5,6-dihydro-4H-pyrrolo[3,4-d]thiazol-2-yl)-2,2′-dimethylbiphenyl-3-yl)benzo[d]oxazol-5-yl)methyl)-3-methylpyrrolidine-3-carboxylic acid]
Cc1c(-c2nc3cc(CN4CCCC[C@H]4C(=O)O)cc(C#N)c3o2)cccc1-c1cccc(NC(=O)c2nc3c(n2C)CCN(C)C3)c1Cl [Example 52, (S)-1-((2-(2′-chloro-3′-(1,5-dimethyl-4,5,6,7-tetrahydro-1H-imidazo[4,5-c]pyridine-2-carboxamido)-2-methylbiphenyl-3-yl)-7-cyanobenzo[d]oxazol-5-yl)methyl)piperidine-2-carboxylic acid]
Cc1c(Nc2nccc3cc(CN4CC[C@@H](O)C4)cnc23)cccc1-c1cccc(-c2nc3cc(CN4CC[C@@H](CC(=O)O)C4)cc(C#N)c3o2)c1C [Example 174, 2-((S)-1-((7-cyano-2-(3′-(3-(((R)-3-hydroxypyrrolidin-1-yl)methyl)-1,7-naphthyridin-8-ylamino)-2,2′-dimethylbiphenyl-3-yl)benzo[d]oxazol-5-yl)methyl)pyrrolidin-3-yl)acetic acid]
Cc1c(Nc2nccc3cc(C(C)N4CC[C@@H](O)C4)cnc23)cccc1-c1cccc(-c2nc3cc(CN4CC[C@@H](C(=O)O)C4)cc(C#N)c3o2)c1C (stereo partly drawn) [Example 140, (3R)-1-((7-cyano-2-(3′-(3-(1-((R)-3-hydroxypyrrolidin-1-yl)ethyl)-1,7-naphthyridin-8-ylamino)-2,2′-dimethylbiphenyl-3-yl)benzo[d]oxazol-5-yl)methyl)pyrrolidine-3-carboxylic acid]
Cc1c(Nc2nccc3cc(C4CCCN4)cnc23)cccc1-c1cccc(-c2nc3cc(CN4CC[C@@H](C(=O)O)C4)cc(C#N)c3o2)c1C (single isomer, unassigned) [Example 99]
Cc1c(Nc2nccc3cc(CNCCO)cnc23)cccc1-c1cccc(-c2nc3cc(CN4CCCC[C@H]4C(=O)O)cc(Cl)c3o2)c1C [Example 3, (S)-1-((7-chloro-2-(3′-((3-(((2-hydroxyethyl)amino)methyl)-1,7-naphthyridin-8-yl)amino)-2,2′-dimethyl-[1,1′-biphenyl]-3-yl)benzo[d]oxazol-5-yl)methyl)piperidine-2-carboxylic acid]
Cc1c(-c2nc3c(o2)CCNC3)cccc1-c1cccc(-c2nc3cc(CN4CC(C(=O)O)C4)cc(Cl)c3o2)c1C [Example 77, 1-((7-chloro-2-(2,2′-dimethyl-3′-(4,5,6,7-tetrahydrooxazolo[4,5-c]pyridin-2-yl)-[1,1′-biphenyl]-3-yl)benzo[d]oxazol-5-yl)methyl)azetidine-3-carboxylic acid]
Cc1c(Nc2nccc3cc(CN[C@H](C)CO)cnc23)cccc1-c1cccc(-c2nc3cc(CN4CCC(C(=O)O)CC4)cc(C#N)c3o2)c1C [Example 202, (R)-1-((7-cyano-2-(3′-(3-((1-hydroxypropan-2-ylamino)methyl)-1,7-naphthyridin-8-ylamino)-2,2′-dimethylbiphenyl-3-yl)benzo[d]oxazol-5-yl)methyl)piperidine-4-carboxylic acid]
Cc1c(-c2nc3cc(CN4CC[C@H](C(=O)O)C4)cc(C#N)c3o2)cccc1-c1cccc(NC(=O)c2nc3c(n2C)CCN(C)C3)c1F [Example 51, (S)-1-((7-cyano-2-(3′-(1,5-dimethyl-4,5,6,7-tetrahydro-1H-imidazo[4,5-c]pyridine-2-carboxamido)-2′-fluoro-2-methylbiphenyl-3-yl)benzo[d]oxazol-5-yl)methyl)pyrrolidine-3-carboxylic acid]
Cc1c(Nc2nccc3cc(CN4CC[C@@H](O)C4)cnc23)cccc1-c1cccc(-c2nc3cc(CN4CC(C(=O)O)C4)cc(C#N)c3o2)c1C [Example 85, (R)-1-((7-cyano-2-(3′-(3-((3-hydroxypyrrolidin-1-yl)methyl)-1,7-naphthyridin-8-ylamino)-2,2′-dimethylbiphenyl-3-yl)benzo[d]oxazol-5-yl)methyl)azetidine-3-carboxylic acid]
Cc1c(-c2nc3cc(CN4CC[C@@H](C(=O)O)C4)cc(C#N)c3o2)cccc1-c1cccc(-n2cc3c(n2)CN(C(C)C)CC3)c1Cl [Example 87, (R)-1-((2-(2′-chloro-3′-(6-isopropyl-4,5,6,7-tetrahydro-2H-pyrazolo[3,4-c]pyridin-2-yl)-2-methylbiphenyl-3-yl)-7-cyanobenzo[d]oxazol-5-yl)methyl)pyrrolidine-3-carboxylic acid]
Cc1c(-c2nc3cc(CN4CC[C@@H](C(=O)O)C4)cc(C#N)c3o2)cccc1-c1cccc(-c2nc3c(s2)CN(C(=O)CNC(C)C)C3)c1C [Example 110, (R)-1-((7-cyano-2-(3′-(5-(2-(isopropylamino)acetyl)-5,6-dihydro-4H-pyrrolo[3,4-d]thiazol-2-yl)-2,2′-dimethylbiphenyl-3-yl)benzo[d]oxazol-5-yl)methyl)pyrrolidine-3-carboxylic acid]
Cc1c(Nc2nccc3cc(CN4CC[C@@H](O)C4)cnc23)cccc1-c1cccc(-c2nc3cc(CN4CC[C@H](C(=O)O)C4)cc(Cl)c3o2)c1C [Example 19, (S)-1-((7-chloro-2-(3′-(3-(((R)-3-hydroxypyrrolidin-1-yl)methyl)-1,7-naphthyridin-8-ylamino)-2,2′-dimethylbiphenyl-3-yl)benzo[d]oxazol-5-yl)methyl)pyrrolidine-3-carboxylic acid]
Cc1c(Nc2nccc3cc(CNCCO)cnc23)cccc1-c1cccc(-c2nc3cc(CNCCC(=O)O)cc(Cl)c3o2)c1C [Example 6, 3-(((7-chloro-2-(3′-((3-(((2-hydroxyethyl)amino)methyl)-1,7-naphthyridin-8-yl)amino)-2,2′-dimethyl-[1,1′-biphenyl]-3-yl)benzo[d]oxazol-5-yl)methyl)amino)propanoic acid]
Cc1c(NC(=O)c2nc3c(n2C)CCN(C)C3)cccc1-c1cccc(-c2nc3cc(CN(C)CCC(=O)O)cc(Cl)c3o2)c1C [Example 42, 3-(((7-chloro-2-(3′-(1,5-dimethyl-4,5,6,7-tetrahydro-1H-imidazo[4,5-c]pyridine-2-carboxamido)-2,2′-dimethylbiphenyl-3-yl)benzo[d]oxazol-5-yl)methyl)(methyl)amino) propanoic acid]
Cc1c(Nc2nccc3cc(CNC[C@@H](C)O)cnc23)cccc1-c1cccc(-c2nc3cc(CN4CC[C@@H](C(=O)O)C4)cc(C#N)c3o2)c1C [Example 147, (R)-1-((7-cyano-2-(3′-((3-((((R)-2-hydroxypropyl)amino)methyl)-1,7-naphthyridin-8-yl)amino)-2,2′-dimethyl-[1,1′-biphenyl]-3-yl)benzo[d]oxazol-5-yl)methyl)pyrrolidine-3-carboxylic acid]
CNC1CCN(c2cccc(-c3cccc(-c4nc5cc(CN6CC[C@@H](C(=O)O)C6)cc(Cl)c5o4)c3C)c2Cl)CC1 [Example 43, (R)-1-((7-chloro-2-(2′-chloro-2-methyl-3′-(4-(methylamino)piperidin-1-yl)biphenyl-3-yl)benzo[d]oxazol-5-yl)methyl)pyrrolidine-3-carboxylic acid]
